# Measured values as given in patent publication US20250288645A1, “USE OF GsMTx4 AND GsMTx4 CONJUGATES TO IMPROVE RECOVERY FROM JOINT INJURY” (priority 2023, published 2025).
# “Also recorded” adds a separate entry of the source. No end group written: not given here.
# How the values were obtained:
# chondrocytes = test: Mechano-vulnerability (impact loading) assay on cartilage of treated ACL-injured mice; assay type: in vivo, mouse; conditions: ACL-I mice, 3 weeks post-ACL-I, versus saline-treated ACL-I mice
# Description: OA was induced by a bilateral anterior cruciate ligament-injury (ACL-I) in 8-week-old C57BL/6 mice. Piezo1-labeling intensity in articular chondrocytes and nerves in subchondral bone, the OA severity (OARSI score), the mechano-vulnerability of chondrocytes, and gait parameters was compared among four experimental groups-Control (uninjured), ACL-injured, ACL-injured with saline administration, and ACL-injured with GsMT4 treatment—at 3-weeks post-ACL-I.
# FIG. 1E is a diagram showing impact loading applied to cartilage over a portion of a mouse bone as part of an assay for studying the resulting area of chondrocyte death, sometimes referred to a “mechano-death” or “mechano-vulnerability” assay. See, Kotelsky, et al., Osteoarthritis and Cartilage Open, 4 (1): 100227 (2022); doi.org/10.1016/j.ocarto. 2021.100227.
# FIG. 2C presents two sets of two photos from animals that have undergone bilateral ACL injury. The animal in the photos in the top row was injected after the injury with saline solution (“ACLL+saline”), while the animal in the bottom row was injected at the same time points post-injury with GsMTx4 (“ACLI+GsMTx4”). The left photos show the amount of dead cells (in red, in the color original, compared to living cells, which have taken up a green label) and after application of a 1 mJ force. FIG. 2D presents a graph showing the results of the studies.
# Piezo1 [1] = test: Massive rotator cuff tear mouse model: Piezo1 immunohistochemistry; assay type: in vivo
# Method: A massive rotator cuff tear (RCT) model was performed by surgical ligation of the supraspinatus and infraspinatus tendons of the right shoulder of 14-week-old C57Bl/6 male and female mice through a deltoid splitting approach. Mice were anesthetized with 2% isoflurane gas mixed with oxygen. A single dose of buprenorphine SR (0.5 mg/kg) was injected subcutaneously at the nape. The right shoulder was prepped using a chemical hair removal agent, followed by betadine solution for 2 minutes and a rinse with 70% ethanol. The remaining steps were performed under sterile technique. A #11 scalpel blade was used to sharply incise the skin and subcutaneous tissues in a longitudinal incision over the palpable border of the lateral shoulder. The deltoid fascia and muscle were sharply incised in line with the skin incision with care not to dissect distally along the humerus to protect the axillary nerve. […] Animals were monitored daily for 3 days post-operatively, and no adverse events were noted. […]
# For Piezo1 immunohistochemistry, deparaffinized and rehydrated slides were incubated in citrate buffer (10 mM sodium citrate, 0.05% Tween-20, pH 6.0) for […] at 75° C. […] Chondrocyte Piezo1 protein expression was quantified by average threshold intensity of immunofluorescence by ImageJ analysis through raw intensity averaging. […]
# C57BL/6 mice = test: Bilateral ACL-injury mouse model: knee histology, OARSI score; assay type: in vivo
# Description: Some of the studies reported below involved a murine model of animals which were subjected to trauma by injuring an ACL (as an exemplar of injury to any of the four knee ligaments). Without wishing to be bound by theory, it is believed that injury to the ACL changes the mechanical loading on the joint, promoting imbalanced metabolism in articular cartilage, and promoting the development of post-traumatic OA, or “PTOA.” Animals were divided into four cohorts: the first group, the controls, were not subjected to trauma, the second group underwent bilateral ACL injury, but no further treatment, the third group underwent bilateral ACL injury, and was then administered saline solution at days 3, 10 and 17 post-injury, and the fourth group underwent bilateral ACL injury, and was then administered GsMTx4 peptide at days 3, 10 and 17 post-injury. The animals were evaluated by gait analysis, a cell vulnerability assay, and a histological evaluation/immunofluorescence assay. In one aspect, the assays compared the expression of Piezo1 and Piezo2 in chondrocytes from injured joints, from uninjured controls, and from injured joints injured and then treated with GsMTx4 and from joints that were injured and then treated only with saline solution. The study also looked at calcitonin gene-related peptide (“CGRP”)-containing (“CGRP^+”) nerve endings. CGRP^+ nerves have been identified as principal coordinators of thermal and mechanical sensitivity in various pain models. See, e.g., Powell, et al., Nat Commun 12, 5812 (2021); doi.org/10.1038/s41467-021-26100-6.
# Experiments were performed in a non-invasive ACL-injury mouse model. […] Both male and female mice were used in the four groups and results were tracked by gender as well as by group.
# Animals in the ACL-injury groups were provided with buprenorphine as an analgesic, placed under anesthesia by isoflurane inhalation, and had the injuries induced with a custom-built strain gauge-instrumented device by applying axial force along the femoral shaft until a force drop was felt and a distinct “pop” sound was heard. […]
# Piezo1 [2] = test: Bilateral ACL-injury mouse model: Piezo1 labeling (immunofluorescence); assay type: in vivo; conditions: ACL-I mice, 3 weeks post-ACL-I, versus saline-treated ACL-I mice
# Description: Some of the studies reported below involved a murine model of animals which were subjected to trauma by injuring an ACL (as an exemplar of injury to any of the four knee ligaments). Without wishing to be bound by theory, it is believed that injury to the ACL changes the mechanical loading on the joint, promoting imbalanced metabolism in articular cartilage, and promoting the development of post-traumatic OA, or “PTOA.” Animals were divided into four cohorts: the first group, the controls, were not subjected to trauma, the second group underwent bilateral ACL injury, but no further treatment, the third group underwent bilateral ACL injury, and was then administered saline solution at days 3, 10 and 17 post-injury, and the fourth group underwent bilateral ACL injury, and was then administered GsMTx4 peptide at days 3, 10 and 17 post-injury. The animals were evaluated by gait analysis, a cell vulnerability assay, and a histological evaluation/immunofluorescence assay. In one aspect, the assays compared the expression of Piezo1 and Piezo2 in chondrocytes from injured joints, from uninjured controls, and from injured joints injured and then treated with GsMTx4 and from joints that were injured and then treated only with saline solution. The study also looked at calcitonin gene-related peptide (“CGRP”)-containing (“CGRP^+”) nerve endings. […]
substance,measurement,setting,value
GsMTx4 (GCLEFWWKCNPNDDKCCRPKLKCSKLFKLCNFSF-NH2; ends and bridges not checked; listed as Grammostola spatulata),area of chondrocyte death by mechanical impact,chondrocytes,decreased area of chondrocyte death by impact; also recorded: decreased impact-induced mechanical-susceptibility
same,humeral head chondrocyte Piezo1 protein expression versus contralateral control joint,"Piezo1 [1]; RC ligation, subcutaneous twice weekly, 14 weeks post-operatively, p<0.05",significantly lower humeral head chondrocyte Piezo1 protein expression
same,Piezo1 expression in cells from RCT shoulders versus animals not treated with GsMTx4,"Piezo1 [1]; RCT, treated post-injury with GsMTx4",reduced expressed of Piezo1
same,OA severity (OARSI score),"C57BL/6 mice; ACL-I mice, GsMTx4 at days 3, 10, 17 post-injury, 3 weeks post-ACL-I, versus saline-treated ACL-I mice",reduced OARSI score; also recorded: decreased OA degrees significantly
same,combined OARSI score for the femur and the tibia (FIG. 2B),"C57BL/6 mice; bilateral ACL injury, subcutaneous injection, versus not treated or saline-treated animals",much lower OARSI score
same,"cartilage on femur and tibia (histology, FIG. 2A)","C57BL/6 mice; bilateral ACL injury, versus saline-injected mouse (cartilage severely eroded and disrupted)",still a layer of cartilage almost all of the femur and tibial surface
same,Piezo1-labeling in chondrocytes and nerves in subchondral bones,Piezo1 [2],reduced Piezo1-labeling in chondrocytes and nerves in subchondral bones
